Here are results for 1 molecule from publication PMC7230232, “Secondary Metabolites from the Culture of the Marine-derived Fungus Paradendryphiella salina PC 362H and Evaluation of the Anticancer Activity of Its Metabolite Hyalodendrin” (Marine Drugs, 2020).

In general, IC50 refers to the concentration that gives 50% inhibition. Read a high IC50 as weaker potency.

Molecules are shown by their SMILES.

One experiment deals with SW48. Nature of the experiment: MTT cell viability assay, SW48. The class given is cell-based. Conditions: Homo sapiens, colon. The protocol: (§1) Cellular viability was determined by the MTT (methylthiazolyldiphenyl-tetrazolium bromide) assay. Briefly, cells were exposed to the indicated concentrations of crude extracts or compounds 1–4 for five doubling times and then incubated for 3 h at 37 °C with MTT. Formazan crystals were then dissolved in DMSO and optical density measured at 570 nm in a microplate reader. The half-maximal inhibitory concentration (IC50) was determined. Values given for crude extracts are averages of at least two experiments done in duplicate. IC50 values calculated for the four isolated compounds and the commercially available 4-hydroxy-tamoxifen (Sigma-Aldrich) are averages of at least three experiments done in duplicate.
For orientation: Formazan colour is commonly taken as a measure of viable cells.

The next experiment relates to C19. Briefly: MTT cell viability assay, C19 immortalized fibroblasts. Conditions: Homo sapiens, Fibroblast; normal; fibroblastic. The experiment is classed as cell-based. As to the method:
as §1

The next experiment relates to HT29 SN-38. Nature of the experiment: MTT cell viability assay, HT29 SN-38. The class given is cell-based. Conditions: Homo sapiens, HT-29; colon; SN-38 resistant. As to the method:
as §1

In another experiment the test system is SW480. Nature of the experiment: MTT cell viability assay, SW480. The class given is cell-based. The following applies: Homo sapiens, colon. As to the method: as §1
The next experiment deals with LS513. Briefly: MTT cell viability assay, LS513. The class given is cell-based. The following applies: Homo sapiens, LS-513; colon. The protocol: as §1
The next experiment deals with LS174T. Briefly: MTT cell viability assay, LS174T. The class given is cell-based. Conditions: Homo sapiens, colon. As to the method: as §1
Experiment [1] deals with MCF7-Sh-WISP2 cells. Nature of the experiment: Intracellular signaling array and immunoblotting. The experiment is classed as cell-based, human. The protocol:
MCF7-Sh-WISP2 cells were treated for 48 h with 2.8 µM of 3 (corresponding to 3.8 × 10^−5 nmol of drug per cell), harvested and lysed on ice for 5 min with 0.5 mL of cell lysis buffer containing a cocktail of protease inhibitors. The lysates were centrifuged at 14,000 g for 1 min at 4 °C. Intracellular signaling molecules were detected using a PathScan® intracellular signaling array kit (# 7323, Cell Signaling Technology) according to the manufacturer’s procedure. The chemiluminescent images of the slide were captured with the Chemidoc system (Biorad).
MCF7-Sh-WISP2 cells were incubated for 72 h at 37 °C with 2.4 µM of 3 (corresponding to 3.8 × 10^−5 nmol of drug per cell). Cells were then washed twice with Phosphate-Buffer Saline (PBS) 1X and lysed for 30 min in RIPA buffer (150 mM NaCl, 1.0% IGEPAL® CA-630, 0.5% sodium deoxycholate, 0.1% SDS, 50 mM Tris, pH 8.0). Proteins (20 µg) were resolved on sodium dodecyl sulfate polyacrylamide gel (SDS/PAGE) (12%) and blotted onto nitrocellulose membranes (Bio-Rad). […] Antigens were detected using an enhanced chemiluminescence kit (Biorad) using the Chemidoc system (Biorad). Protein quantitation was calculated using Image Lab software developed by Bio-Rad.
For orientation: A western blot detects proteins with antibodies after separation by electrophoresis.

Another experiment deals with HeLa. Briefly: MTT cell viability assay, HeLa. The experiment is classed as cell-based. Conditions: Homo sapiens, cervix. As to the method:
as §1

For the next experiment, the system named is HT29 oxa. Nature of the experiment: MTT cell viability assay, HT29 oxa. The class given is cell-based. The following applies: Homo sapiens, HT-29; colon; oxaliplatin resistant. As to the method:
as §1

The subject of another experiment is HT29. Briefly: MTT cell viability assay, HT29. The experiment is classed as cell-based. Conditions: Homo sapiens, HT-29; colon. The protocol:
as §1

The test system of another experiment is HCT116 oxa. Briefly: MTT cell viability assay, HCT116 oxa. The class given is cell-based. Conditions: Homo sapiens, HCT-116; colon; oxaliplatin resistant. The protocol: as §1
The subject of the next experiment is HCT116. Briefly: MTT cell viability assay, HCT116. The class given is cell-based. The following applies: Homo sapiens, HCT-116; colon. As to the method: as §1
Experiment [2] has as its system MCF7-Sh-WISP2 cells. Nature of the experiment: Cell cycle progression by propidium iodide flow cytometry. The class given is cell-based, human. The following applies: 380 nM. As to the method:
Figure S5. Cell cycle progression of MCF7-Sh-WISP2 cells in response to compound 3 exposure.
After treatment with 380 nM of 3 (hyalodendrin) (corresponding to 1.9 10-5 nmol of drug per cell), cells were collected, counted and fixed with 70 % ethanol. Cells were then stained with 40 μg/mL propidium iodide (PI) (Biolegend) containing RNaseA (100 µg/mL), prior analysis on a Gallios flow cytometer (Beckman Coulter, Inc, Villepinte, France). The results were analyzed using the Venturi One V6 software (Applied Cytometry).
(1 picture or pasted object on this page, not shown here)
(In general: In flow cytometry, cells or beads pass a laser one at a time.)

The test system of another experiment is RKO. Briefly: MTT cell viability assay, RKO. Conditions: Homo sapiens, colon. The class given is cell-based. As to the method: as §1
The test system of the next experiment is LOVO. Nature of the experiment: MTT cell viability assay, LOVO. The experiment is classed as cell-based. The following applies: Homo sapiens, colon. The protocol: as §1
The subject of the next experiment is DLD1. Briefly: MTT cell viability assay, DLD1. The experiment is classed as cell-based. Conditions: Homo sapiens, DLD-1; colon. The protocol: as §1
Experiment [3] addresses T1, thioredoxin system (Trr1+Trx1) (Saccharomyces cerevisiae, UniProt P22217).
T1 construct: made in house
Nature of the experiment: In vitro reduction by the reconstituted thioredoxin system (NADPH consumption). The class given is biochemical. The following applies: versus ACN control. The protocol:
Thioredoxin 1 (Trx1) and NADPH-dependent thioredoxin reductase (Trr1) from Saccharomyces cerevisiae were cloned and produced as described previously. Thioredoxin activity was measured spectrophotometrically (Uvikon XS; Secomam) in 1 mL cuvette by following NADPH consumption at 340 nm over 2 min. The reaction was performed in 100 µM NADPH, 246 nM of Trr1 in 30 mM Tris-HCl buffer (pH 7.9) and in the presence or not of 65 nM of Trx1. The reaction was initiated by adding 10 µL of 50 mM of 3 in acetonitrile or 10 µL of acetonitrile (ACN, Control experiment). For each condition, NADPH consumption experiments were performed in triplicate and results were represented as the mean ± SD. The significance of the results was evaluated by Student’s t-test.

A further experiment deals with HCT116 SN-38. Nature of the experiment: MTT cell viability assay, HCT116 SN-38. The experiment is classed as cell-based. The following applies: Homo sapiens, HCT-116; colon; SN-38 resistant. As to the method:
as §1

T1 sequence (P22217 whole entry): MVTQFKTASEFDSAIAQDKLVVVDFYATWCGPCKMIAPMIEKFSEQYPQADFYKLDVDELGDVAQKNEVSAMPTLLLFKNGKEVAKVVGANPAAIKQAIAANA

As for `CN1C(=O)[C@@]2(Cc3ccccc3)SS[C@]1(CO)C(=O)N2C` [Compound 3, (3R, 6R) Hyalodendrin], the IC50 worked out at 0.149 ± 0.0155 µM in the experiment with SW48; 0.253 ± 0.0205 µM in the experiment with C19; 0.0938 ± 0.0136 µM with HT29 SN-38; 0.164 ± 0.011 µM in the experiment with SW480; 0.078 ± 0.0093 µM with LS513; 0.158 ± 0.013 µM in the experiment on LS174T. The IC50 is 0.069 ± 0.0099 µM in the experiment on HeLa; 0.142 ± 0.0026 µM in the experiment with HT29 oxa; 0.058 ± 0.0137 µM in the experiment with HT29; 0.0257 ± 0.0042 µM in the experiment with HCT116 oxa; 0.048 ± 0.0093 µM in the experiment on HCT116; 0.0743 ± 0.0019 µM in the experiment on RKO. The values for the concentration for half-maximal inhibition (IC50) in the experiment on LOVO, with DLD1 and with HCT116 SN-38 were 0.0734 ± 0.0164 µM, 0.04 ± 0.0058 µM and 0.0438 ± 0.0042 µM, respectively. Further, the “phosphorylation of p53 on serine 15” value with MCF7-Sh-WISP2 cells [1] (2.8 µM for 48 h (array), 2.4 µM for 72 h (Western blot)) is given as “increased phosphorylation”. Besides, the “PRAS40 protein expression levels” value with MCF7-Sh-WISP2 cells [1] (Western blot, 2.4 µM for 72 h) is recorded as “general decrease”. The “cleavage of PARP or caspase-3” value in the experiment with MCF7-Sh-WISP2 cells [1] (signaling array) is listed as “no cleavage”. Also, the cell cycle progression result with MCF7-Sh-WISP2 cells [2] is “no significant changes”. Besides, the NADPH consumption increase in experiment [3] is ~14 folds.
